US20050130909A1 (priority 2002, published 2005)
Values joined by “and” are separate entries in the source; they are usually repeats but may differ in a detail not shown here. Equal entries are not always repeated.

Legend:
Gram-positive pathogen = experiment: Phase II SSTI trial: microbiological response, all Gram-positive pathogens; assay type: in vivo, human; conditions: for Success rate by pathogen: Total organisms: MITT at FU; for Microbiologic success rate (by patient): MITT population; for Eradication/presumed eradication rate, all organisms: microbiologically-evaluable population at FU
Experimental: (§1) This randomized, controlled study evaluated the safety and efficacy of two dose regimens of dalbavancin.
(§2) There were 62 patients randomized into the study; all received at least one dose of study medication. Four study populations were evaluated for safety and efficacy and were defined as follows: The intent-to-treat (ITT) population included all patients who received at least one dose of study drug (all randomized study subjects).
(§3) Microbiological outcome, a secondary efficacy variable, was assessed in the subpopulation of patients who had microbiologically documented SSTI (i.e., at least one identified baseline pathogen). A microbiologic response was assessed for each Gram-positive pathogen identified at baseline (i.e., eradication, presumed eradication, persistence, presumed persistence). For patients for whom follow-up cultures were not performed, the microbiologic responses for baseline pathogens were presumed on the basis of the clinical response. Microbiologic response by patient at the EOT and FU visits was graded as success (i.e., all Gram-positive organisms eradicated or presumed eradicated) or failure (i.e., at least one Gram-positive organism persisted or presumed to have persisted, multiple pathogens with partial eradication). At both the EOT and FU visits, colonization and superinfection were assessed. At the FU visit, a patient's bacteriological response could also include recurrence.

[1] = system: Methicillin-sensitive S. aureus; experiment: Phase II SSTI trial: microbiological response by pathogen; assay type: in vivo, human; conditions: MITT at FU
Experimental: as §1, §2, §3

[2] = system: Miscellaneous streptococcus species; experiment: as above; assay type: in vivo, human; conditions: MITT at FU
Experimental: as §1, §2, §3

S. aureus [3] = experiment: as above; assay type: in vivo, human; conditions: for Success rate by pathogen: All S. aureus: MITT at FU; for S. aureus eradication rate: microbiologically-evaluable population at FU
Experimental: as §1, §2, §3

[4] = Phase II SSTI trial: adverse events (ITT population); assay type: in vivo, human
Experimental: as §1
Each patient who received at least one dose of study drug (ITT population) was evaluated for drug safety through monitoring of adverse events (AE), including abnormal clinical laboratory test results and vital signs. AE were rated by the investigator as to their severity (mild, moderate, severe, life-threatening), and by the relationship to the study drug (not related, unlikely related, possibly related, or probably related).

[5] = Phase II SSTI trial: dalbavancin plasma concentrations; assay type: in vivo, human
Group B streptococcus = experiment: Dalbavancin MIC of baseline pathogens; assay type: cell-based; conditions: baseline isolates, MITT
Text: (§4) The most common pathogen was S. aureus.

[6] = system: Miscellaneous Streptococcus and nontypeable strains; experiment: Dalbavancin MIC of baseline pathogens; assay type: cell-based; conditions: baseline isolates, MITT
Text: as §4

S. aureus [7] = experiment: Dalbavancin MIC of baseline pathogens; assay type: cell-based; conditions: baseline isolates, MITT
Text: as §4

Streptococcus pyogenes = experiment: Dalbavancin MIC of baseline pathogens; assay type: cell-based; conditions: baseline isolates, MITT
Text: as §4

[8] = system: Gram-positive isolates, including MRSA; experiment: Dalbavancin MIC of trial isolates; assay type: cell-based; conditions: isolates that persisted after treatment
[9] = Pharmacokinetics and renal excretion in healthy subjects; assay type: in vivo, human
Experimental: Blood samples were drawn into heparinized tubes and centrifuged. Plasma was separated and stored frozen at −20° C. until time of assay. Plasma and urine samples were assayed for dalbavancin using validated LC/MS/MS methods. […] The peak concentration (Cmax) values were obtained directly from the observed data. The area under the plasma concentration-time curve (AUC) was calculated using the linear trapezoidal rule. Clearance (CL) was computed as dose/AUC. The elimination half life (t1/2) was estimated by linear regression of the log-linear portion of the log concentration versus time curve. Estimates of the volume of distribution (VZ) was calculated using the regression parameters, while the volume of distribution at steady state (Vss) was calculated from the area under the first moment curve (AUMC) multiplied by the dose and divided by AUC. The cumulative amount of dalbavancin excreted in urine was determined as the integrand of the urine excretion rate (AURC). CLR, or renal clearance, was calculated as the ratio: CLR=AURC/AUC.

bovine albumin = bovine albumin (Bos taurus, UniProt P02769); experiment: Protein binding by ITC; conditions: 25° C.; pH 7.4
[10] = Rat quantitative tissue distribution study; assay type: in vivo, Sprague-Dawley rats
Experimental: Quantitative tissue distribution studies were conducted to assess the tissue distribution of dalbavancin following a single IV infusion of dalbavancin to male rats.
All samples were analyzed by LSC.

streptococci = experiment: In vitro antibacterial activity; assay type: cell-based; conditions: including penicillin-resistant strains
[11] = single-dose dalbavancin (N = 20)

Chain of bovine albumin (P02769 25-607): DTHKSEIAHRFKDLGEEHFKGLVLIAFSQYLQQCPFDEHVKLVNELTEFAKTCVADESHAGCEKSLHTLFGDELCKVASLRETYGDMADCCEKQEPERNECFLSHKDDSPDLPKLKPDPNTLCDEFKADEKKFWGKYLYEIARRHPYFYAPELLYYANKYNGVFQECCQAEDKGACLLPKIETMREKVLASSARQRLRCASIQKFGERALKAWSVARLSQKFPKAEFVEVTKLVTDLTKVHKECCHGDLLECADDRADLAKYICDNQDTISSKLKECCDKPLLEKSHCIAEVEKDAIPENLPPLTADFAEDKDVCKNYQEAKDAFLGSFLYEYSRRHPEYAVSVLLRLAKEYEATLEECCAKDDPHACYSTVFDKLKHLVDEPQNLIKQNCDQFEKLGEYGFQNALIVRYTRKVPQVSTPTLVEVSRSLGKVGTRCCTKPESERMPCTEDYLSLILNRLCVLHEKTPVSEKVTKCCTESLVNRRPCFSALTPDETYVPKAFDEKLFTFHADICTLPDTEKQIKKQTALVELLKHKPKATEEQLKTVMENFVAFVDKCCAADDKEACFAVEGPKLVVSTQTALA

Compound: CN[C@H]1C(=O)N[C@@H]2Cc3ccc(cc3)Oc3cc4cc(c3O[C@@H]3O[C@H](C(=O)O)[C@@H](O)[C@H](O)[C@H]3NC(=O)CCCCCCCCC(C)C)Oc3ccc(cc3Cl)[C@@H](O)[C@@H]3NC(=O)[C@H](NC(=O)[C@@H]4NC(=O)[C@@H](NC2=O)c2cc(cc(O)c2Cl)Oc2cc1ccc2O)c1ccc(O)c(c1)-c1c(O[C@H]2O[C@H](CO)[C@@H](O)[C@H](O)[C@@H]2O)cc(O)cc1[C@@H](C(=O)NCCCN(C)C)NC3=O [Dalbavancin]
- Success rate by pathogen: Total organisms (Gram-positive pathogen; single-dose 1100 mg): 7/16 (43.8%)
- Success rate by pathogen: Total organisms (Gram-positive pathogen; two-dose 1000/500 mg): 14/16 (87.5%)
- Microbiologic success rate (by patient) (Gram-positive pathogen; EOT, single-dose 1100 mg): 5/14 (35.7) %
- Microbiologic success rate (by patient) (Gram-positive pathogen; EOT, two-dose 1000/500 mg): 10/13 (76.9) %
- Microbiologic success rate (by patient) (Gram-positive pathogen; FU, single-dose 1100 mg): 3/14 (21.4) %
- Microbiologic success rate (by patient) (Gram-positive pathogen; FU, two-dose 1000/500 mg): 9/13 (69.2) %
- Microbiologic success rates, summary over both visits (EOT, FU) (Gram-positive pathogen; microbiologically-evaluable and MITT populations, single dose of dalbavancin): < 40%
- Eradication/presumed eradication rate, all organisms (Gram-positive pathogen; single-dose dalbavancin): 58.3% and 58%
- Eradication/presumed eradication rate, all organisms (Gram-positive pathogen; two-dose dalbavancin): 92.3% and 92%
- Success rate by pathogen: Methicillin-sensitive ([1]; single-dose 1100 mg): 2/7 (29%)
- Success rate by pathogen: Methicillin-sensitive ([1]; two-dose 1000/500 mg): 5/6 (83%)
- Success rate by pathogen: Miscellaneous streptococcus species ([2]; single-dose 1100 mg): 2/3 (67%)
- Success rate by pathogen: Miscellaneous streptococcus species ([2]; two-dose 1000/500 mg): 4/4 (100%)
- Success rate by pathogen: All S. aureus (S. aureus [3]; single-dose 1100 mg): 5/13 (38%)
- Success rate by pathogen: All S. aureus (S. aureus [3]; two-dose 1000/500 mg): 9/11 (82%)
- S. aureus eradication rate (S. aureus [3]; single-dose dalbavancin): 50%
- S. aureus eradication rate (S. aureus [3]; two-dose dalbavancin): 90%
- Hepatotoxicity or nephrotoxicity ([4]; Phase II trial): no evidence that dalbavancin induces any degree of clinically significant hepatotoxicity or nephrotoxicity
- Serious adverse events related to study drug ([4]; Phase II trial, both dalbavancin regimens): no serious adverse events related to study drug treatment
- Tolerability ([4]; Phase II trial, both doses): well tolerated
- AE leading to discontinuation of study medication [4, 11]: 0
- Patients with ≧1 AE [4, 11]: 95%
- ≧1 AE possibly/probably related to treatment [4, 11]: 55%
- ≧1 AE possibly/probably related to treatment ([4]; single-dose dalbavancin (N = 20), listed as dalbavancin): 55%
- AE leading to discontinuation of study medication ([4]; two-dose dalbavancin (N = 21)): 0
- Adverse event: Constipation ([4]; two-dose dalbavancin (N = 21)): 4.8%
- Patients with ≧1 AE ([4]; two-dose dalbavancin (N = 21)): 76.2%
- ≧1 AE possibly/probably related to treatment ([4]; two-dose dalbavancin (N = 21)): 48%
- ≧1 AE possibly/probably related to treatment ([4]; two-dose dalbavancin (N = 21), listed as dalbavancin): 48%
- Dalbavancin plasma level maintained ([5]; additional week, with an additional dose of 500 mg IV on day 8): greater than 20 mg/l
- Mean dalbavancin plasma concentration (mean±SD) ([5]; single-dose regimen 1100 mg IV, Study day 8): 31.1 ± 7.1 mg/L
- Mean dalbavancin plasma concentration (mean±SD) ([5]; single-dose regimen, Study day 10): 25.2 ± 4.8 mg/L
- Mean dalbavancin plasma concentration (mean±SD) ([5]; single-dose regimen, Study day 24): 10.2 ± 3.5 mg/L
- Dalbavancin plasma concentration, all patients ([5]; through the first week following the first dose): greater than 20 mg/l
- Mean dalbavancin plasma concentration (mean±SD) ([5]; two-dose regimen 1000/500 mg IV, Study day 8 (prior to the second dose)): 30.4 ± 8.2 mg/L
- Mean dalbavancin plasma concentration (mean±SD) ([5]; two-dose regimen, Study day 20): 21.2 ± 10.0 mg/L
- Mean dalbavancin plasma concentration (mean±SD) ([5]; two-dose regimen, Study day 34): 9.0 ± 4.4 mg/L
- Dalbavancin MIC (Group B streptococcus; standard of care arm): 2 (0.016) mg/L
- Dalbavancin MIC (Group B streptococcus; two-dose arm): 2 (0.016) mg/L
- Dalbavancin MIC ([6]; single-dose arm): 3 (0.016) mg/L
- Dalbavancin MIC ([6]; standard of care arm): 4 (0.016) mg/L
- Dalbavancin MIC ([6]; two-dose arm): 2 (0.016) mg/L
- Dalbavancin MIC (S. aureus [7]; single-dose arm (N = 14)): 13 (0.12) mg/L
- Dalbavancin MIC range (S. aureus [7]; standard of care arm (N = 14)): 10 (0.016-0.25) mg/L
- Dalbavancin MIC (S. aureus [7]; two-dose arm (N = 13)): 11 (0.12) mg/L
- Dalbavancin MIC (Streptococcus pyogenes; standard of care arm): 1 (0.016) mg/L
- Dalbavancin MIC (Streptococcus pyogenes; two-dose arm): 1 (0.016) mg/L
- Change in dalbavancin MIC of isolates that persisted [8]: no change in dalbavancin MIC
- AURC (cumulative amount excreted in urine) ([9]; Mean, single 1000 mg IV): 419 mg
- CL ([9]; Mean, single 1000 mg IV): 0.0431 ± 0.0074 L/h
- CLR ([9]; Mean, single 1000 mg IV): 0.018 L/h
- Vz ([9]; Mean, single 1000 mg IV): 16.0 L
- CLR ([9]; Min, single 1000 mg IV): 0.0130 L/h
- Peak concentration of dalbavancin in man ([9]; conversion of approximately 300 mg/L): 165 µM
- Peak plasma concentrations ([9]; immediately following end of infusion, single 1000 mg IV): approximately 300 mg/L
- Plasma concentrations maintained for at least seven days ([9]; single intravenous infusion of 1000 mg): above 45 mg/l
- Apparent binding affinity Ka (bovine albumin): 1.38 (±0.14) ×10^5 M^−1
- Dose recovered in the bile ([10]; bile duct cannulated rats, over 384 h after the dose): ~11 % of the dose
- Concentrations of radioactivity in the CNS ([10]; healthy rats): low but detectable
- Time by which all tissues had quantifiable drug-derived radioactivity ([10]; male rats, single IV infusion 20 mg/kg): ≤ 12 h
- Skin penetration: drug-derived radioactivity in skin relative to plasma ([10]; rats): as high as or higher than in plasma
- Tissue accumulation ([10]; rats, through 70 days): did not accumulate in any single tissue, organ, or blood cellular component
- Activity relative to teicoplanin or vancomycin (streptococci): better activity against streptococci, including penicillin-resistant strains, than teicoplanin or vancomycin
